Test results: patent US10195185B2, “3-(1H-imidazo[4,5-C]pyridin-2-yl)-1H-pyrazolo[4,3-B]pyridines and therapeutic uses thereof” (Samumed, LLC, priority 2015, dated 2019)
pEC50: −log10 of the molar value.

Key:
Type in all cases: cell-based
[1] = test system: Primary human fibroblasts derived from IPF patients (LL29 cells) treated with TGF-β1; test: Inhibition of the fibrotic process: αSMA staining in TGF-β1 treated fibroblasts; settings: Fibroblast, 96 h, LL29 fibroblasts treated with TGF-β1, 4 days; for inhibition at 10 µM: read-out: percent inhibition in brackets beside EC50 >10 μM
In short: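 Read-out: fraction of αSMA-positive cells by high-content imaging, SYTOX-stained dead cells excluded, normalized to TGF-β1/DMSO wells. Cells got compound (10 μM–[…], 11 points) plus TGF-β1 20 ng/mL for 4 days. EC50 from triplicate curves; above 10 μM, % inhibition at 10 μM given.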

SW480 colon cancer cells = test: Cell viability assay (CellTiter-Blue), four days; settings: Homo sapiens, 96 h; for pEC50: CellTiter-Blue cell viability; for inhibition at 10 µM: read-out: percent inhibition at 10 μM (given for EC50 of >10 μM)
In short: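 4-day exposure, 37 °C/5% CO2; ~2×10^3 SW480 cells/well; 8-pt 1:3 curve, 10–0.0045 μM, duplicates vs DMSO controls. Resazurin→resorufin fluorescence readout, ~3 h. EC50 by nonlinear fit; if >10 μM, % inhibition at 10 μM reported.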

[2] = test system: IL-6 in human monocyte cell line (THP-1 cells); test: IL-6 inhibition in LPS-stimulated THP-1 cells (HTRF); settings: IL-6 in LPS-stimulated THP-1 cells; for pEC50: HTRF; for inhibition at 10 µM: read-out: percent inhibition in brackets beside EC50 >10 μM
In short: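 Readout is the 665/620 nm HTRF ratio for secreted IL-6, normalized to DMSO wells, with EC50 from a variable-slope four-parameter fit, or % inhibition at 10 μM when above 10 μM. Cells (1% FBS, 24 h beforehand) got compound for 2 h, then LPS 500 ng/mL for 22 h at 37° C; top dose 10 μM, 0.1% DMSO.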

Structure (SMILES)	pEC50 (SW480 colon cancer cells)	pEC50 [2]	pEC50 [1]	inhibition at 10 µM [2]	inhibition at 10 µM [1]	inhibition at 10 µM (SW480 colon cancer cells)
Fc1cccc(-c2nccc3[nH]c(-c4n[nH]c5ccc(-c6ccncc6)nc45)nc23)c1 [Compound 18, 3-(4-(3-Fluorophenyl)-1H-imidazo[4,5-c]pyridin-2-yl)-5-(pyridin-4-yl)-1H-pyrazolo[4,3-b]pyridine]	5.56	< 5.00	5.38	4.6%	–	–
CN(C)Cc1cncc(-c2ccc3[nH]nc(-c4nc5c(-c6cccs6)nccc5[nH]4)c3n2)c1 [Compound 349, N,N-dimethyl-1-(5-(3-(4-(thiophen-2-yl)-1H-imidazo[4,5-c]pyridin-2-yl)-1H-pyrazolo[4,3-b]pyridin-5-yl)pyridin-3-yl)methanamine]	5.90	< 5.00	5.58	0%	–	–
CCNCc1cncc(-c2ccc3[nH]nc(-c4nc5c(-c6cc(F)cc(NCCN(C)C)c6)nccc5[nH]4)c3n2)c1 [Compound 454, N^1-(3-(2-(5-(5-((Ethylamino)methyl)pyridin-3-yl)-1H-pyrazolo[4,3-b]pyridin-3-yl)-1H-imidazo[4,5-c]pyridin-4-yl)-5-fluorophenyl)-N^2,N^2-dimethylethane-1,2-diamine]	5.18	5.99	5.43	–	–	–
Fc1cccc(-c2nccc3[nH]c(-c4n[nH]c5ccc(-c6cn[nH]c6)nc45)nc23)c1 [Compound 507, 3-(4-(3-Fluorophenyl)-1H-imidazo[4,5-c]pyridin-2-yl)-5-(1H-pyrazol-4-yl)-1H-pyrazolo[4,3-b]pyridine]	< 5.00	< 5.00	< 5.00	0%	9.9%	–
CCCCC(=O)Nc1cncc(-c2ccc3[nH]nc(-c4nc5c(-c6cc(F)cc(NCCN(C)C)c6)nccc5[nH]4)c3n2)c1 [Compound 467, N-(5-(3-(4-(3-((2-(Dimethylamino)ethyl)amino)-5-fluorophenyl)-1H-imidazo[4,5-c]pyridin-2-yl)-1H-pyrazolo[4,3-b]pyridin-5-yl)pyridin-3-yl)pentanamide]	< 5.00	< 5.00	5.92	33.1%	–	0%
CS(=O)(=O)NCc1cc(F)cc(-c2nccc3[nH]c(-c4n[nH]c5ccc(-c6cncnc6)nc45)nc23)c1 [Compound 503, N-(3-Fluoro-5-(2-(5-(pyrimidin-5-yl)-1H-pyrazolo[4,3-b]pyridin-3-yl)-1H-imidazo[4,5-c]pyridin-4-yl)benzyl)methanesulfonamide]	< 5.00	< 5.00	< 5.00	40.8%	0%	0.8%
Cc1ccc(-c2nccc3[nH]c(-c4n[nH]c5ccc(-c6cncc(NC(=O)C(C)C)c6)nc45)nc23)s1 [Compound 401, N-(5-(3-(4-(5-Methylthiophen-2-yl)-1H-imidazo[4,5-c]pyridin-2-yl)-1H-pyrazolo [4,3-b]pyridin-5-yl)pyridin-3-yl)isobutyramide]	< 5.00	< 5.00	5.60	0%	–	2.5%
CN(C)c1cncc(-c2ccc3[nH]nc(-c4nc5c(-c6cccc(F)c6)nccc5[nH]4)c3n2)c1 [Compound 7]	6.03	5.51	6.41	–	–	–
CN(C)CCNc1cc(F)cc(-c2nccc3[nH]c(-c4n[nH]c5ccc(-c6ccccn6)nc45)nc23)c1 [Compound 476, N^1-(3-Fluoro-5-(2-(5-(pyridin-2-yl)-1H-pyrazolo[4,3-b]pyridin-3-yl)-1H-imidazo[4,5-c]pyridin-4-yl)phenyl)-N^2,N^2-dimethylethane-1,2-diamine]	5.20	< 5.00	5.76	35.8%	–	–
CS(=O)(=O)NCc1cc(F)cc(-c2nccc3[nH]c(-c4n[nH]c5ccc(-c6cncc(NC(=O)c7ccccc7)c6)nc45)nc23)c1 [Compound 487, N-(5-(3-(4-(3-Fluoro-5-(methylsulfonamidomethyl)phenyl)-1H-imidazo[4,5-c]pyridin-2-yl)-1H-pyrazolo[4,3-b]pyridin-5-yl)pyridin-3-yl)benzamide]	< 5.00	< 5.00	< 5.00	16.9%	0%	0%
Cc1ccc(-c2nccc3[nH]c(-c4n[nH]c5ccc(-c6cncc(NC(=O)C7CCCC7)c6)nc45)nc23)s1 [Compound 414, N-(5-(3-(4-(5-Methylthiophen-2-yl)-1H-imidazo[4,5-c]pyridin-2-yl)-1H-pyrazolo[4,3-b]pyridin-5-yl)pyridin-3-yl)cyclopentanecarboxamide]	< 5.00	< 5.00	< 5.00	46.3%	46.2%	0.4%
NC1CN(c2cncc(-c3ccc4[nH]nc(-c5nc6c(-c7cccc(F)c7)nccc6[nH]5)c4n3)n2)C1 [Compound 510, 1-(6-(3-(4-(3-Fluorophenyl)-1H-imidazo[4,5-c]pyridin-2-yl)-1H-pyrazolo [4,3-b]pyridin-5-yl)pyrazin-2-yl)azetidin-3-amine]	5.03	< 5.00	< 5.00	9.4%	10.3%	–

The next lines start with results.

pEC50 (SW480 colon cancer cells)	pEC50 [2]	Structure (SMILES)	pEC50 [1]	inhibition at 10 µM [2]	inhibition at 10 µM [1]	inhibition at 10 µM (SW480 colon cancer cells)
5.46	< 5.00	Fc1cccc(-c2nccc3[nH]c(-c4n[nH]c5ccc(-c6cncc(OCCN7CCCC7)c6)nc45)nc23)c1 [Compound 514, 3-(4-(3-Fluorophenyl)-1H-imidazo[4,5-c]pyridin-2-yl)-5-(5-(2-(pyrrolidin-1-yl)ethoxy)pyridin-3-yl)-1H-pyrazolo[4,3-b]pyridine]	5.75	47.8%	–	–
5.01	< 5.00	c1cc2[nH]c(-c3n[nH]c4ccc(-c5cncc(OCCN6CCCC6)c5)nc34)nc2c(N2CCCCC2)n1 [Compound 610, 3-(4-(Piperidin-1-yl)-1H-imidazo[4,5-c]pyridin-2-yl)-5-(5-(2-(pyrrolidin-1-yl)ethoxy)pyridin-3-yl)-1H-pyrazolo[4,3-b]pyridine]	< 5.00	34.9%	0%	–
< 5.00	< 5.00	c1ccc(COc2cncc(-c3ccc4[nH]nc(-c5nc6c(-c7ccncc7)nccc6[nH]5)c4n3)c2)cc1 [Compound 582, 5-(5-(Benzyloxy)pyridin-3-yl)-3-(4-(pyridin-4-yl)-1H-imidazo[4,5-c]pyridin-2-yl)-1H-pyrazolo[4,3-b]pyridine]	< 5.00	8.3%	0%	10.9%
6.49	< 5.00	COc1cncc(-c2ccc3[nH]nc(-c4nc5c(-c6cccc(F)c6)nccc5[nH]4)c3n2)c1 [Compound 516, 3-(4-(3-Fluorophenyl)-1H-imidazo[4,5-c]pyridin-2-yl)-5-(5-methoxypyridin-3-yl)-1H-pyrazolo[4,3-b]pyridine]	7.03	25.1%	–	–
< 5.00	< 5.00	Cc1cn(-c2nccc3[nH]c(-c4n[nH]c5ccc(-c6cncc(OCCN(C)C)c6)nc45)nc23)cn1 [Compound 627, N,N-Dimethyl-2-((5-(3-(4-(4-methyl-1H-imidazol-1-yl)-1H-imidazo[4,5-c]pyridin-2-yl)-1H-pyrazolo[4,3-b]pyridin-5-yl)pyridin-3-yl)oxy)ethan-1-amine]	5.36	17.6%	–	8.2%
< 5.00	< 5.00	c1cncc(-c2nccc3[nH]c(-c4n[nH]c5ccc(-c6cncc(OC7CCCCC7)c6)nc45)nc23)c1 [Compound 559, 5-(5-(Cyclohexyloxy)pyridin-3-yl)-3-(4-(pyridin-3-yl)-1H-imidazo[4,5-c]pyridin-2-yl)-1H-pyrazolo[4,3-b]pyridine]	5.56	42.7%	–	18%
< 5.00	< 5.00	Oc1cncc(-c2ccc3[nH]nc(-c4nc5c(-c6cccc(F)c6)nccc5[nH]4)c3n2)c1 [Compound 517, 5-(3-(4-(3-Fluorophenyl)-1H-imidazo[4,5-c]pyridin-2-yl)-1H-pyrazolo[4,3-b]pyridin-5-yl)pyridin-3-ol]	5.81	54.4%	–	3.5%
< 5.00	< 5.00	c1cc(-c2nccc3[nH]c(-c4n[nH]c5ccc(-c6cncc(OC7CCNCC7)c6)nc45)nc23)ccn1 [Compound 576, 5-(5-(Piperidin-4-yloxy)pyridin-3-yl)-3-(4-(pyridin-4-yl)-1H-imidazo[4,5-c]pyridin-2-yl)-1H-pyrazolo[4,3-b]pyridine]	5.62	22.3%	–	24.6%
